{"source": "patent US20240016804A1", "about": "“METHODS AND MATERIALS FOR ASSESSING AND TREATING HYPERTENSIVE DISORDERS” (Mayo Foundation for Medical Education and Research, priority 2019, published 2024)", "tested_on": "PE-MSC", "assay": "Apoptosis assay for MSC (Annexin V, IncuCyte S3, Red Object Count), PE-MSC", "format": "cell-based, human", "settings": "dose response 1, 2, 5 and 10 μM, 24 hours", "method": "MSC isolation from adipose tissue: Abdominal fat tissue (3-5 g) obtained during C-section was cultured at 37° C./5% CO2 in Advanced MEM media supplemented with 5% platelet lysate (PLTmax, Mill Creek Life Sciences, Rochester, MN), which provides a robust growth medium. The third passage of cells was used for phenotype/function analysis. MSC were positive to CD90, CD44, and CD105, negative to CD34, CD31, and CD45 by Flow Cytometry (FlowSight™, Amnis, Seattle, WA), and were able to transdifferentiate into adipocytes, chondrocytes, and osteocytes. For studies in non-pregnant subjects, MSC were isolated from three healthy kidney donors at time of kidney donation.\nApoptosis was assessed by Annexin V reagent (Essen Bioscience) using the IncuCyte S3 Live-Cell Analysis System (Essen Bioscience).\nThe initial dose response experiments were performed to determine the optimal Dasatinib concentration using the apoptotic assay and IncuCyte S3 Live-Cell Analysis System (Essen Bioscience). Approximately 1×10^6 MSC (PE and NP) in passage #4, were treated with the senolytic drug, Dasatinib at concentrations of 1, 2, 5 and 10 μM (dissolved in 0.1% DMSO) for 24 hours. Three groups were analyzed: 1) cells incubated in media, 2) vehicle: cells treated with 0.1% DMSO, 3) cells treated with Dasatinib. […] Annexin V, added at the beginning of the treatment, labeled apoptotic cells yielding red fluorescence. […]"}
{"compound": "Cc1nc(Nc2ncc(C(=O)Nc3c(C)cccc3Cl)s2)cc(N2CCN(CCO)CC2)n1", "note": "[Dasatinib]", "values": [{"measurement": "Optimal concentration (from ratios of apoptotic cells)", "result": 1, "unit": "µM"}]}
